Publication PMC10339456, “Exploring the 5-Substituted 2-Aminobenzothiazole-Based DNA Gyrase B Inhibitors Active against ESKAPE Pathogens” (ACS Omega, 2023)
Like-named read-outs stand apart in the source and are kept apart here.

Assays:
E. coli Topo IV [1] = target: T1, E. coli Topo IV (Escherichia coli, UniProt P20083); design: method as in PMID 33524686; details: relaxation; compound previously prepared and tested; cited from earlier work
T1 construct: purchased Inspiralis Limited, Norwich, UK
T1 sequence (P20083 whole entry): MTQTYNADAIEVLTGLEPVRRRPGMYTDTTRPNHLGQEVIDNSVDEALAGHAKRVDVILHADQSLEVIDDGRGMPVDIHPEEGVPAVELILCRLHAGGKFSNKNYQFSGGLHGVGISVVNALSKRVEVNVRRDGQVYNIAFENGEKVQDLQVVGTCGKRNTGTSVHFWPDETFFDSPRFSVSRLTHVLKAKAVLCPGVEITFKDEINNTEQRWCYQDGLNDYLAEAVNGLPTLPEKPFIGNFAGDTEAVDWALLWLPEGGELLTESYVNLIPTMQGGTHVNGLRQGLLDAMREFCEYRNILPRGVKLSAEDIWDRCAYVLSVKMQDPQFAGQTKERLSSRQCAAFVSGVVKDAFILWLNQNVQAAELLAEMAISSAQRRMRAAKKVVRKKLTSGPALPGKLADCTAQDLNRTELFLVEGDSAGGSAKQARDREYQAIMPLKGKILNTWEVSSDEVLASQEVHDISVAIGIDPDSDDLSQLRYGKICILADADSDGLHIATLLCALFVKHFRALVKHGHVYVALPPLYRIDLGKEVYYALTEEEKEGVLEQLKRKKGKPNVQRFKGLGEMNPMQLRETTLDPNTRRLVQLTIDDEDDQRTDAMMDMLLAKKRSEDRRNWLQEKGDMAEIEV
T1 sequence (P0AFI2 whole entry, further chain): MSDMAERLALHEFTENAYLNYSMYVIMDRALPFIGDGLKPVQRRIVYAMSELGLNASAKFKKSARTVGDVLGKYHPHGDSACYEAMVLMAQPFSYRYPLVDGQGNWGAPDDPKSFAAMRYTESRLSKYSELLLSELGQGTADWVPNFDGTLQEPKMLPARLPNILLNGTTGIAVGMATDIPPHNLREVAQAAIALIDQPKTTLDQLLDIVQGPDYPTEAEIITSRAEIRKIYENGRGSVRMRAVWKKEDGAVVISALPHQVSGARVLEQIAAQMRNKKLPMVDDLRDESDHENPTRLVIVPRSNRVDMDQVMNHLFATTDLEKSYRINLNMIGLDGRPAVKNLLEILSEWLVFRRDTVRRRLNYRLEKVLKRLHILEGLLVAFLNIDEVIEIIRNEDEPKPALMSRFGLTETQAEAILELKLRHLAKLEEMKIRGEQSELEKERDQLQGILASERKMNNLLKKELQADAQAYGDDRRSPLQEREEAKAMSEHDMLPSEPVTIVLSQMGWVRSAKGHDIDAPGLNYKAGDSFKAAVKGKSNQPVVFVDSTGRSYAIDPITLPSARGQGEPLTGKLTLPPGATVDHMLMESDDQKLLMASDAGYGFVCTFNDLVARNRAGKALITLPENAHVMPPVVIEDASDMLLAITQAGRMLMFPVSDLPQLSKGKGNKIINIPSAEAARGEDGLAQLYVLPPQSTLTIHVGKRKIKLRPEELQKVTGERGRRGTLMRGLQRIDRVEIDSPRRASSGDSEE

E. coli gyrase [2] = target: T2, E. coli gyrase (Escherichia coli, UniProt P0AES6); design: method as in PMID 33524686; details: supercoiling; compound previously prepared and tested; cited from earlier work
T2 construct: purchased Inspiralis Limited, Norwich, UK

Gram-negative strains [3] = tested on: Gram-negative strains; design: method as in PMID 33524686; details: cited from earlier work
A. baumannii ATCC17978 [4] = tested on: A. baumannii ATCC17978; design: method as in PMID 33524686; details: cited from earlier work
S. aureus ATCC29213 [5] = tested on: S. aureus ATCC29213; design: method as in PMID 33524686; details: cited from earlier work
K. pneumoniae ATCC10031 [6] = tested on: K. pneumoniae ATCC10031; design: method as in PMID 33524686; details: cited from earlier work
P. aeruginosa ATCC27853 [7] = tested on: P. aeruginosa ATCC27853; design: method as in PMID 33524686; details: cited from earlier work
[8] = tested on: S. aureus (MRSA) ATCC43300; design: method as in PMID 33524686; details: cited from earlier work
E. coli ATCC25922 [9] = tested on: E. coli ATCC25922; design: method as in PMID 33524686; details: cited from earlier work
E. coli Topo IV [10] = target: T1, E. coli Topo IV; experiment: Topo IV relaxation assay (Inspiralis kit); format: biochemical
Protocol: (§1) Compounds B, C, D, and E were evaluated against DNA gyrase from E. coli supercoiling and against Topo IV in relaxation assay. The results are presented in Table 1 and Figure S5 as concentrations of compounds that inhibit the enzyme activity by 50% (IC50 values). […] Compounds B, C, D, and E were tested for antibacterial activity against Gram-positive and Gram-negative bacteria, including ESKAPE pathogens.
(§2) Commercially available assay kits (Inspiralis Limited, Norwich, UK) were used for the determination of IC50 values for test compounds for inhibition of DNA gyrase supercoiling and Topo IV and TopoIIα relaxation. Assays were performed according to previously reported procedures.[25] For details on enzyme assays, see the Supporting Information.

E. coli gyrase [11] = target: T2, E. coli gyrase; experiment: DNA gyrase supercoiling assay (Inspiralis kit); format: biochemical; details: mean ± SD of three independent experiments
Protocol: as §1, §2

Gram-negative strains [12] = experiment: MIC, summary in text over Gram-negative strains; format: cell-based; details: for MIC: read-out: MIC against Gram-negative strains (no activity); for MIC range against Gram-negative strains: E. coli, A. baumannii, P. aeruginosa, and K. pneumoniae
Protocol: (§3) To evaluate selectivity against a related human target, compounds D and E were tested for their inhibitory activity on human topoisomerase IIα.
(§4) Antimicrobial assays (MICs) were performed by a standard serial broth microdilution method. For details on antimicrobial assays, see the Supporting Information.

E. coli ATCC25922 [13] = experiment: MIC, broth microdilution (CLSI); format: cell-based; details: Escherichia coli
Protocol: as §4

[14] = tested on: S. aureus (MRSA) ATCC43300; experiment: MIC, broth microdilution (CLSI); format: cell-based; details: Staphylococcus aureus
Protocol: as §4

K. pneumoniae ATCC10031 [15] = experiment: MIC, broth microdilution (CLSI); format: cell-based; details: Klebsiella pneumoniae
Protocol: as §4

P. aeruginosa ATCC27853 [16] = experiment: MIC, broth microdilution (CLSI); format: cell-based; details: Pseudomonas aeruginosa
Protocol: as §4

A. baumannii ATCC17978 [17] = experiment: MIC, broth microdilution (CLSI); format: cell-based; details: Acinetobacter baumannii
Protocol: as §4

[18] = tested on: Enterobacter cloacae ATCC13047; experiment: MIC, broth microdilution (CLSI); format: cell-based
Protocol: as §4

S. aureus ATCC29213 [19] = experiment: MIC, broth microdilution (CLSI); format: cell-based; details: Staphylococcus aureus
Protocol: as §4

[20] = tested on: Gram-positives S. aureus, MRSA, VISA, and E. faecium; experiment: MIC, summary over Gram-positive strains; format: cell-based; details: most strains
Protocol: as §3, §4

human topoisomerase IIα = target: T3, human topoisomerase IIα (Homo sapiens, UniProt P11388); experiment: Human topoisomerase IIα relaxation assay (selectivity); format: biochemical; details: read-out: enzyme residual activity human topoisomerase IIα
T3 construct: purchased Inspiralis Limited, Norwich, UK
T3 sequence (P11388 whole entry): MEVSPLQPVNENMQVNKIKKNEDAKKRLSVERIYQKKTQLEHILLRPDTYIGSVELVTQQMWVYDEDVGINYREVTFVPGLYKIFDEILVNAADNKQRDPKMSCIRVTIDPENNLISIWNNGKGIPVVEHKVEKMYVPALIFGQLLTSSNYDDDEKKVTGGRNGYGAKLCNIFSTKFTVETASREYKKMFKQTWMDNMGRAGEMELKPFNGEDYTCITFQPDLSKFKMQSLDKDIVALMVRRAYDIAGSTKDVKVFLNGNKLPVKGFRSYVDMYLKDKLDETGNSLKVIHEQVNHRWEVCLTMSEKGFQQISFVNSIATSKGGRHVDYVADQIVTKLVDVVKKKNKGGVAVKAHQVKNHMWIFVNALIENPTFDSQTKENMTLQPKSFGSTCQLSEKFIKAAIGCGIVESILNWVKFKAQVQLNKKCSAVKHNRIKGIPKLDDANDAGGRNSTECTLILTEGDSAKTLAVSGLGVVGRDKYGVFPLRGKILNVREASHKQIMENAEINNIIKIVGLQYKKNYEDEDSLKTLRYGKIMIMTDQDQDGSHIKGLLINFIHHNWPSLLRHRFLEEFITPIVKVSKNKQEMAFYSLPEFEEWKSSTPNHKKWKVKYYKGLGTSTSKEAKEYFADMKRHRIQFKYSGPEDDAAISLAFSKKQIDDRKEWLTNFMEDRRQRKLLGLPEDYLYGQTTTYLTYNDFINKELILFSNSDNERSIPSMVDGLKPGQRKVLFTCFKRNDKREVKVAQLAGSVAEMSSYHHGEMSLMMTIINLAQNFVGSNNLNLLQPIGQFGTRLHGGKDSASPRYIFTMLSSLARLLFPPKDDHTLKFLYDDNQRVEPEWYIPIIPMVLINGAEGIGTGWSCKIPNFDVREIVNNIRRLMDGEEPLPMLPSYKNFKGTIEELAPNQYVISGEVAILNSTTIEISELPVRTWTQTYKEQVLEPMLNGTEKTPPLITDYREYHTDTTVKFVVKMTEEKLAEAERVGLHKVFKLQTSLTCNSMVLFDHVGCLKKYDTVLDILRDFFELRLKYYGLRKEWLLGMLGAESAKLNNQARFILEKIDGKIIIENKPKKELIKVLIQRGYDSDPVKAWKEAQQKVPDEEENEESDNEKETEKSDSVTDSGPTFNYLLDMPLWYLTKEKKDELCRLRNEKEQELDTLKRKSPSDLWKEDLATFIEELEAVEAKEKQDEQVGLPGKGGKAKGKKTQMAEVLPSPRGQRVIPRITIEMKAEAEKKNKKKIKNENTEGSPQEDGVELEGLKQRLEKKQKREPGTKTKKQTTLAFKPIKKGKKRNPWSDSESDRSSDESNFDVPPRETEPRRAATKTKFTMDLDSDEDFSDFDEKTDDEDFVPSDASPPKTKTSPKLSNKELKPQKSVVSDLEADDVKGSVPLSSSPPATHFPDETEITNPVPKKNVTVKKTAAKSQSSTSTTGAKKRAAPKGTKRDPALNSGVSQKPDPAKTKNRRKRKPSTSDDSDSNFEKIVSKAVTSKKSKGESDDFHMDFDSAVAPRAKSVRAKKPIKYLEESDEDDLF
Protocol: as §3, §2

[21] = tested on: S. aureus (VISA) ATCC700699; experiment: MIC, broth microdilution (CLSI); format: cell-based; details: Staphylococcus aureus
Protocol: as §4

E. faecium ATCC700221 = experiment: MIC, broth microdilution (CLSI); format: cell-based; details: Enterococcus faecium
Protocol: as §4

[22] = mean ± SD of three independent experiments, read-out: IC50 E. coli Topo IV

Compound	IC50 (E. coli Topo IV [10]; [22])	IC50 (E. coli gyrase [11])	MIC (Gram-negative strains [12])	MIC (E. coli ATCC25922 [13]; first value of cell)	MIC (E. coli ATCC25922 [13]; second value of cell)	MIC ([14]; first value of cell)	MIC ([14]; second value of cell)	MIC (K. pneumoniae ATCC10031 [15]; first value of cell)	MIC (K. pneumoniae ATCC10031 [15]; second value of cell)	MIC (P. aeruginosa ATCC27853 [16]; first value of cell)	MIC (P. aeruginosa ATCC27853 [16]; second value of cell)	MIC (A. baumannii ATCC17978 [17]; first value of cell)	MIC (A. baumannii ATCC17978 [17]; second value of cell)	MIC ([18]; first value of cell)	MIC ([18]; second value of cell)	MIC (S. aureus ATCC29213 [19]; first value of cell)	MIC (S. aureus ATCC29213 [19]; second value of cell)	MIC [20]	remaining activity at 100 µM (human topoisomerase IIα)	MIC range against Gram-negative strains (Gram-negative strains [12])	further results
Cc1[nH]c(C(=O)Nc2nc3cc(O)c(C(=O)O)cc3s2)c(Cl)c1Cl [Compound A]	–	–	–	–	–	–	–	–	–	–	–	–	–	–	–	–	–	–	–	–	IC50 (E. coli Topo IV [1]): 95 nM; IC50 (E. coli gyrase [2]): < 10 nM; MIC against Gram-negative bacterial strains (inactive) (Gram-negative strains [3]): > 64 µg/mL; MIC A. baumannii ATCC17978 (A. baumannii ATCC17978 [4]; first value of cell): > 64 µg/mL; MIC A. baumannii ATCC17978 (A. baumannii ATCC17978 [4]; second value of cell): > 166 µM; MIC S. aureus ATCC29213 (S. aureus ATCC29213 [5]; first value of cell): 16 µg/mL; MIC S. aureus ATCC29213 (S. aureus ATCC29213 [5]; second value of cell): 41 µM; MIC K. pneumoniae ATCC10031 (K. pneumoniae ATCC10031 [6]; first value of cell): 8 µg/mL; MIC K. pneumoniae ATCC10031 (K. pneumoniae ATCC10031 [6]; second value of cell): 21 µM; MIC P. aeruginosa ATCC27853 (P. aeruginosa ATCC27853 [7]; first value of cell): > 64 µg/mL; MIC P. aeruginosa ATCC27853 (P. aeruginosa ATCC27853 [7]; second value of cell): > 166 µM; MIC S. aureus (MRSA) ATCC43300 ([8]; first value of cell): 4 µg/mL; MIC S. aureus (MRSA) ATCC43300 ([8]; second value of cell): 10 µM; MIC E. coli ATCC25922 (E. coli ATCC25922 [9]; first value of cell): > 64 µg/mL; MIC E. coli ATCC25922 (E. coli ATCC25922 [9]; second value of cell): > 166 µM
Cc1[nH]c(C(=O)Nc2nc3c(C)c(F)c(C(=O)O)cc3s2)c(Cl)c1Cl [Compound B]	2000 ± 900 nM	40 nM	> 64 µg/mL	> 64 µg/mL	> 159 µM	0.25 µg/mL	0.6 µM	> 64 µg/mL	> 159 µM	> 64 µg/mL	> 159 µM	> 64 µg/mL	> 159 µM	> 64 µg/mL	> 159 µM	0.5 µg/mL	1.2 µM	–	–	–	–
CC(=O)N(Cc1ccccc1)c1cc2nc(NC(=O)c3[nH]c(C)c(Cl)c3Cl)sc2cc1C(=O)O [Compound C]	–	71 nM	> 64 µg/mL	> 64 µg/mL	> 124 µM	8 µg/mL	16 µM	64 µg/mL	124 µM	> 64 µg/mL	> 124 µM	> 64 µg/mL	> 124 µM	> 64 µg/mL	> 124 µM	8 µg/mL	16 µM	–	–	–	IC50 (E. coli Topo IV [10]; E. coli, read-out: IC50 Topo IV): 4000 nM
Cc1[nH]c(C(=O)Nc2nc3cc(NCc4ccccc4)c(C(=O)O)cc3s2)c(Cl)c1Cl [Compound D]	293 ± 155 nM	< 10 nM	–	16 µg/mL	34 µM	< 0.03 µg/mL	< 0.07 µM	4 µg/mL	8.4 µM	8 µg/mL	17 µM	8 µg/mL	17 µM	> 64 µg/mL	> 135 µM	< 0.03 µg/mL	< 0.07 µM	< 0.03 µg/mL	100%	4 to 16 µg/mL	MIC ([21]; first value of cell): < 0.03 µg/mL; MIC ([21]; second value of cell): < 0.07 µM; MIC (E. faecium ATCC700221; first value of cell): < 0.13 µg/mL; MIC (E. faecium ATCC700221; second value of cell): < 0.26 µM
COCCCNc1cc2nc(NC(=O)c3[nH]c(C)c(Cl)c3Cl)sc2cc1C(=O)O [Compound E]	210 nM	< 10 nM	–	8 µg/mL	18 µM	< 0.03 µg/mL	< 0.07 µM	4 µg/mL	9 µM	16 µg/mL	35 µM	4 µg/mL	9 µM	> 64 µg/mL	> 140 µM	< 0.03 µg/mL	< 0.07 µM	< 0.03 µg/mL	55%	4 to 16 µg/mL	MIC ([21]; first value of cell): < 0.03 µg/mL; MIC ([21]; second value of cell): < 0.07 µM; MIC (E. faecium ATCC700221; first value of cell): < 0.06 µg/mL; MIC (E. faecium ATCC700221; second value of cell): < 0.14 µM
